Tests used:
[1] = system: phosphorylated (activated) LYN; conditions: BT549 cells, Western blot; cited from earlier work
[2] = system: mesenchymal breast cancer lines; conditions: at concentrations that inhibit LYN kinase activity; cited from earlier work
Abl kinase (BCR-Abl) = Abl kinase (BCR-Abl) (Homo sapiens, UniProt P00519); experiment: Kinase profiling, Abl; format: biochemical; conditions: VI201 at 100 μM
Method: (§1) The three compounds identified in Example 1 were tested for kinase activity at Millipore (Dundee UK). The compounds were shipped as 10 mM stocks in DMSO as per Millipore testing standards. The testing consisted of two initial phases:
(§2) (a) Profiling against a set of approximately 60 kinases, selected as representative of all kinases and current kinase drug targets, to determine the selectivity of the compounds; and, (b) IC50 testing against EGFR, the kinase target of the initial search template molecule.

Pim-1(h) = Pim-1(h) (Homo sapiens, UniProt P11309); experiment: Millipore kinase profiling, Pim-1; format: biochemical; conditions: VI201 at 100 μM
Chain of Pim-1(h) (P11309 whole entry): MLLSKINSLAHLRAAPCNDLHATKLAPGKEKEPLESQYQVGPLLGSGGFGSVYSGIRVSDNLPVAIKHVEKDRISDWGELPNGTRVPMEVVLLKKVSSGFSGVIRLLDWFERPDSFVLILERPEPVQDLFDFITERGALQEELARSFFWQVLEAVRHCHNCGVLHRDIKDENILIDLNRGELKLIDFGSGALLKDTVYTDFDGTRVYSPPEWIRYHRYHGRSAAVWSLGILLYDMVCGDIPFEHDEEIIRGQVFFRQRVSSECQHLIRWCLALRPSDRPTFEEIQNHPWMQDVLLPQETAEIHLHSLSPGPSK
Method: as §1, §2
(§3) In particular, compound VI201 inhibited three kinases, in one case restricting the activity to about 20% at 100 μM concentration (Table 1).

Lyn(h) = Lyn(h) (Homo sapiens, UniProt P07948); experiment: Millipore kinase profiling, Lyn; format: biochemical; conditions: VI201 at 100 μM
Chain of Lyn(h) (P07948 1-491 isoform P07948-2): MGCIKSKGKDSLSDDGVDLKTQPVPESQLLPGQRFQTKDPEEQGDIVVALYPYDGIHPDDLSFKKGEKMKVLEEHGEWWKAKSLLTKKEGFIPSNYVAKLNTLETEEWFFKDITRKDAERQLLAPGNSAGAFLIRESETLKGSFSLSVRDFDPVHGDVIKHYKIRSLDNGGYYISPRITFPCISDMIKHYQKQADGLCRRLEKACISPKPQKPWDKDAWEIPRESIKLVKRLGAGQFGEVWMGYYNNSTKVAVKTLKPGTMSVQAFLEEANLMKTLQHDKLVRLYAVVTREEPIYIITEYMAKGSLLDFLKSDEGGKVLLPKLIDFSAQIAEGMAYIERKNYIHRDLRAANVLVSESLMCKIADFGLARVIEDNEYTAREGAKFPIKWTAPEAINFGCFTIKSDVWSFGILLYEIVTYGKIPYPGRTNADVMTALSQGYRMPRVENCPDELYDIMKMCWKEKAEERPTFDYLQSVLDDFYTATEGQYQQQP
Method: as §1, §2, §3

GSK3β kinase = GSK3β kinase (Homo sapiens, UniProt P49841); experiment: Kinase profiling, GSK3β; format: biochemical; conditions: VI201 at 100 μM
Chain of GSK3β kinase (P49841 whole entry): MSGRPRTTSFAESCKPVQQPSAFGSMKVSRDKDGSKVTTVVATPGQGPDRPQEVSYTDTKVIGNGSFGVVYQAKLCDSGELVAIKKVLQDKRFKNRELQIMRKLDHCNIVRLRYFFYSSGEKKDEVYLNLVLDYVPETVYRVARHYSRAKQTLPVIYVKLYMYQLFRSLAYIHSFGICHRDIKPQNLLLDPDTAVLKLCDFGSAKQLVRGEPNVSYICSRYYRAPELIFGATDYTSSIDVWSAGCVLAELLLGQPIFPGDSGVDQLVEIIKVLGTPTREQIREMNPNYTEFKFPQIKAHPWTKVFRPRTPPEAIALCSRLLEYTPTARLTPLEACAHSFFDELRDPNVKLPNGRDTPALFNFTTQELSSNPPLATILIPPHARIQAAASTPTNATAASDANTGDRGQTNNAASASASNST
Method: as §1, §2

WNK3(h) = WNK3(h) (Homo sapiens, UniProt Q9BYP7); experiment: Millipore kinase profiling, WNK3; format: biochemical; conditions: VI201 at 100 μM
Chain of WNK3(h) (Q9BYP7 whole entry): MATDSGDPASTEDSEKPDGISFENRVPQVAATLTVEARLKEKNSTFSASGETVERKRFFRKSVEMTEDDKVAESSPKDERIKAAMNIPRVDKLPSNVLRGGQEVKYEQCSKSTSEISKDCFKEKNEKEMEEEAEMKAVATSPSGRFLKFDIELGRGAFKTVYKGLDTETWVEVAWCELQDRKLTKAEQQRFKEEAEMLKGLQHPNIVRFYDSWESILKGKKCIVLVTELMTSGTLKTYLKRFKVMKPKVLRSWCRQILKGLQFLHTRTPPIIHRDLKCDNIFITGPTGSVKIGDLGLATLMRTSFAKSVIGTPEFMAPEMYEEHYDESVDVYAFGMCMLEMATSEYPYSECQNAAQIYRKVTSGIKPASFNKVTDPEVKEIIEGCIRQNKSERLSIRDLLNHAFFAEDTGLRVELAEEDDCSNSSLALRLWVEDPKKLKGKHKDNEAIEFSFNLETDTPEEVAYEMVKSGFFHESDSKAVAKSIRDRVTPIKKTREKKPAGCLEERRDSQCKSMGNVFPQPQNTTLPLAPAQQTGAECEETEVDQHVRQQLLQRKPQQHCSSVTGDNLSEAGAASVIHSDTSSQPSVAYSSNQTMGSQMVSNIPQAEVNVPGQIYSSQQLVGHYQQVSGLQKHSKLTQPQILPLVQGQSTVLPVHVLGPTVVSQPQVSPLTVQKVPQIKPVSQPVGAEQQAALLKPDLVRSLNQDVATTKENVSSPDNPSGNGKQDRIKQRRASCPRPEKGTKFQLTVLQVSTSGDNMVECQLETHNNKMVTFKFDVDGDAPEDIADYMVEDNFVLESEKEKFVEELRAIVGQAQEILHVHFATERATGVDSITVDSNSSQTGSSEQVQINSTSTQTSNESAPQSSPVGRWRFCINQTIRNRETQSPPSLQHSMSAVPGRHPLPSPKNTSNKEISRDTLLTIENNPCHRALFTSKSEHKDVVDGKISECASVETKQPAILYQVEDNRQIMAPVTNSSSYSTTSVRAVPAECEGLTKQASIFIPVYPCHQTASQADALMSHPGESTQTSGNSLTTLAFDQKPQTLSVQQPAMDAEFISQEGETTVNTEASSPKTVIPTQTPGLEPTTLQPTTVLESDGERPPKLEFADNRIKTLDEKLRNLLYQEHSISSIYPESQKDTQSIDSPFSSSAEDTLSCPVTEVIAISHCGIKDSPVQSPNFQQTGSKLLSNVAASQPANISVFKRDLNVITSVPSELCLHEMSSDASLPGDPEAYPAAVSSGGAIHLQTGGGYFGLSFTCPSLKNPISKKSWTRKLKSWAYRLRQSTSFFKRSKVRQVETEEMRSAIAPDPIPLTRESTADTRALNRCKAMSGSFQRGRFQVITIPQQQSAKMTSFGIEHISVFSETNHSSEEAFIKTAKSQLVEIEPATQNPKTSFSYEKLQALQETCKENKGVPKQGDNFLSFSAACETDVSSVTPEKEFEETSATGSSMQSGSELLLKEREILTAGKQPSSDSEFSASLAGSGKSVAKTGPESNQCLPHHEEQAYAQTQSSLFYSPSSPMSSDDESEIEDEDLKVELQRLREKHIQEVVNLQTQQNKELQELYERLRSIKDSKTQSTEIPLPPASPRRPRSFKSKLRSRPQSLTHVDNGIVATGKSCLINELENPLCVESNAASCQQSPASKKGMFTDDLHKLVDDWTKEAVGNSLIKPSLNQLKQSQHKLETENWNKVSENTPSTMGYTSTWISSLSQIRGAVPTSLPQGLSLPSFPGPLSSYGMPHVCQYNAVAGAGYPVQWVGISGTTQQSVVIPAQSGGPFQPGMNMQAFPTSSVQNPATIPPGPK
Method: as §1, §2, §3

Chain of Abl kinase (BCR-Abl) (P00519 27-1130 limits assumed): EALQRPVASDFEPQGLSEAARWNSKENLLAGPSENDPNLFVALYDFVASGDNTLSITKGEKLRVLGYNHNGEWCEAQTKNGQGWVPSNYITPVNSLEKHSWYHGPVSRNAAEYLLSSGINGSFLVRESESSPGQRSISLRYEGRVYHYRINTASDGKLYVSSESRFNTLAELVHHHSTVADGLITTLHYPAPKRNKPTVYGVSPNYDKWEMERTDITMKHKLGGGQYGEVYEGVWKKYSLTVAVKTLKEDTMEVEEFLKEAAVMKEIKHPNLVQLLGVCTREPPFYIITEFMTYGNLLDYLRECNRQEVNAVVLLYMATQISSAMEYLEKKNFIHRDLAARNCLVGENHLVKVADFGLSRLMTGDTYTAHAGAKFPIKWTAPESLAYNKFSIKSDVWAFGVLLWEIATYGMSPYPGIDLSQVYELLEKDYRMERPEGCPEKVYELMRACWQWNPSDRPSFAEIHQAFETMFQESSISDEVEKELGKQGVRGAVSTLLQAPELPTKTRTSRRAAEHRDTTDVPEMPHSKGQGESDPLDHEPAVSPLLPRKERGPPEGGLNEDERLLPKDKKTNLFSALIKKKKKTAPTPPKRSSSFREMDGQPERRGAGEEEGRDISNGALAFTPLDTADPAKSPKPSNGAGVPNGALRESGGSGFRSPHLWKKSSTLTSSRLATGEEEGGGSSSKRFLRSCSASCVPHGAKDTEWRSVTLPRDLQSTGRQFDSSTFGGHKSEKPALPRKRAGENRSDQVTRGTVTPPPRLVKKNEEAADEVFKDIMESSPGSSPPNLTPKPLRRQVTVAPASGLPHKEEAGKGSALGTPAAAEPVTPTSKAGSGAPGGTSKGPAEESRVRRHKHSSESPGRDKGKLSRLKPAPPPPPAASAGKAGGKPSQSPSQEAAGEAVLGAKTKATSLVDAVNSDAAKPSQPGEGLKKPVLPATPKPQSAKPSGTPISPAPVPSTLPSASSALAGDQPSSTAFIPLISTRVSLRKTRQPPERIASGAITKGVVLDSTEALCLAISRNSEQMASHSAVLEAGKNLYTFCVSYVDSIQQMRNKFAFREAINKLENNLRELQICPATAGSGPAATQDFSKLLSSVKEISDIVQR

Compound | phosphorylated (activated) LYN [1] | cell invasion [2] | cell proliferation [2] | inhibition of Abl kinase (BCR-Abl) (Abl kinase (BCR-Abl)) | inhibition of Pim-1 kinase (Pim-1(h)) | inhibition of LYN kinase (Lyn(h)) | inhibition of GSK3β kinase (GSK3β kinase) | inhibition of WNK3 kinase (WNK3(h))
Cc1nc(Nc2ncc(C(=O)Nc3c(C)cccc3Cl)s2)cc(N2CCN(CCO)CC2)n1 [Dasatinib, N-(2-chloro-6-methylphenyl)-2-[[6-[4-(2-hydroxyethyl)-1-piperazinyl]-2-methyl-4-pyrimidinyl]amino]-5-thiazole carboxamide] | decreased phosphorylated (activated) LYN | blocked invasion | not proliferation | – | – | – | – | –
N-(2,3-dimethylphenyl)-3-(3-(pyridin-2-yl)-1,2,4-thiadiazol-5-yl)propanamide [VI201] | – | – | – | 5% | 44% | 82% | 26% | 37%

Reference: US20130203817A1, “Novel Inhibitors of LYN Kinase” (VASSA INFORMATICS, priority 2012, published 2013)
